In patent US7799775B2, “Pyrimidine derivatives” (ASKA Pharmaceutical Co., Ltd., priority 2004, dated 2010):

Assays:
human 5-HT3 receptor = target: T1, human 5-HT3 receptor (Homo sapiens, UniProt P46098); assay: Measurement of affinity to human 5-HT3 receptor (in vitro), [3H]BRL-43694 binding; conditions: test compound 100 nmols/L; [3H]BRL-43694 0.5 nmols/L; HEK-293 cell membrane expressing human 5-HT3 receptor; read-out: Percent Inhibition (%) on Each Receptor's Binding at 10^−7M, 5-HT3
T1 construct: purchased BIOLINKS K.K; host or cells: HEK-293 cells (membrane preparation)
T1 sequence (P46098 24-478): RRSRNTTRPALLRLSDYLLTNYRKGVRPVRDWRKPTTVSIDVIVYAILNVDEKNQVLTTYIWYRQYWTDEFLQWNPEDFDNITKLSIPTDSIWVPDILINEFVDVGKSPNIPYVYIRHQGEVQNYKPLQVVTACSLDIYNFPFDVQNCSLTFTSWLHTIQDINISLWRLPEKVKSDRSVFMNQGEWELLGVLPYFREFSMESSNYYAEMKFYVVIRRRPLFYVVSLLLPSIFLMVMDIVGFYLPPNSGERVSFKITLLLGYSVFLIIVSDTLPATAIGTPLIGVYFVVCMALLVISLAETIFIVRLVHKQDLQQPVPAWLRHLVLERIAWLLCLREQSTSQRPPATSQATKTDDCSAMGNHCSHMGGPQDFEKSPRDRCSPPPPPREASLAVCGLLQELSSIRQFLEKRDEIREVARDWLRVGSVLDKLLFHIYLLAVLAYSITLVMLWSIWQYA
Outline: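 Membranes from HEK-293 cells expressing the receptor were incubated with 0.5 nmol/L radioligand and compound for 60 min at 25 °C in Tris/MgCl2/EDTA buffer, pH 7.5. Bound radioactivity was collected by filtration and counted. Percent inhibition was corrected for non-specific binding defined with 10 μmol/L tropisetron; compounds were tested at 100 nmol/L.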

human 5-HT1A receptor = target: T2, human 5-HT1A receptor (Homo sapiens, UniProt P08908); assay: Affinity measurement of the compounds to human 5-HT1A receptor (in vitro), [3H]8-OH-DPAT binding; conditions: test compound 100 nmols/L; [3H]8-OH-DPAT 0.25 nmols/L; CHO cell membrane expressing human 5-HT1A receptor; read-out: Percent Inhibition (%) on Each Receptor's Binding at 10^−7M, 5-HT1A
T2 construct: purchased Packard Bioscience; host or cells: CHO cells (membrane preparation)
T2 sequence (P08908 1-422): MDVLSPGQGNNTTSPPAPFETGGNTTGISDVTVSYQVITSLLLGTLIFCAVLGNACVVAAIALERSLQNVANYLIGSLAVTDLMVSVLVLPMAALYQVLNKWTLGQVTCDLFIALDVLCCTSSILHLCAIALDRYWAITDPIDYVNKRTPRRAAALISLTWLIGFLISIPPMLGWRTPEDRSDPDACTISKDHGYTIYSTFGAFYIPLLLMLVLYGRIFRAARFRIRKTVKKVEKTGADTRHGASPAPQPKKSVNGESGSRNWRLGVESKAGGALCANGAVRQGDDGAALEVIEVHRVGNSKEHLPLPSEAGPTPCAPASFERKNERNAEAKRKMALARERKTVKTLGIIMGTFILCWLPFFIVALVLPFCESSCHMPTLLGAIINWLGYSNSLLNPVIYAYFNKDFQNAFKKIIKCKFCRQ
Outline: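 Membranes from CHO cells expressing human 5-HT1A were incubated 60 min at 27 °C with 0.25 nmol/L [3H]8-OH-DPAT and compound in Tris/MgSO4/EDTA/ascorbate buffer, pH 7.4. Bound radioactivity was collected on PEI-soaked GF/C filters and counted; percent inhibition was corrected for non-specific binding defined with 10 μmol/L 8-OH-DPAT.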

`Cc1sc2nc(SCCCN3CCN(c4ccccn4)CC3)[nH]c(=O)c2c1C` [Example 2-1, 5,6-dimethyl-2-[3-(4-pyridin-2-ylpiperazin-1-yl)propylthio]-3H-thieno[2,3-d]-pyrimidin-4-one] showed an inhibition at 0.1 µM (human 5-HT3 receptor) of 52.6%, an inhibition at 0.1 µM (human 5-HT1A receptor) of 60.8% and a melting point of 209 to 209.4 °C.
`O=c1[nH]c(SCCCN2CCN(c3ccccn3)CC2)nc2sc3c(c12)CCCC3` [Example 2-2, 2-[3-(4-pyridin-2-ylpiperazin-1-yl)propylthio]-5,6,7,8-tetrahydro-3H-benzo[4,5]thieno[2,3-d]pyrimidin-4-one] showed a melting point of 190.2 to 191.6 °C.
Compound `O=c1[nH]c(CCCCN2CCN(c3ccccn3)CC2)nc2sc3c(c12)CCCC3` [Example 3-10, 2-[4-(4-pyridin-2-ylpiperazin-1-yl)butyl]-5,6,7,8-tetrahydro-3H-benzo[4,5]thieno[2,3-d]pyrimidin-4-one] has a melting point of 192.6 to 194.4 °C.
With `CCOC(=O)c1sc2nc(SCCCN3CCN(c4ccccn4)CC3)[nH]c(=O)c2c1C` [Example 2-3, 5-methyl-4-oxo-2-[3-(4-pyridin-2-ylpiperazin-1-yl)propylthio]-3,4-dihydrothieno[2,3-d]pyrimidine-6-carboxylic acid ethyl ester] the melting point was 160.1 to 161.8 °C.
In the case of `CCOC(=O)c1sc2nc(SCCCN3CCN(c4ccc5ccccc5n4)CC3)[nH]c(=O)c2c1C` [Example 2-6, 5-methyl-4-oxo-2-[3-(4-quinolin-2-ylpiperazin-1-yl)propylthio]-3,4-dihydrothieno[2,3-d]pyrimidine-6-carboxylic acid ethyl ester], the melting point is reported as 200.1 to 201.4 °C.
